Test results as given in PMC4813125, “Identification of Human UDP-Glucuronosyltransferase 1A4 as the Major Isozyme Responsible for the Glucuronidation of 20(S)-Protopanaxadiol in Human Liver Microsomes” (International Journal of Molecular Sciences, 2016).

Assays:
[1] = system: PPD glucuronidation in pooled HLMs; assay: Chemical inhibition of PPD glucuronidation in pooled HLMs; type: in vitro ADME, human; settings: PPD 50 μM; for inhibition of PPD glucuronidation (in words): inhibitor 5, 50, and 200 μM
Description: Fluconazole, androsterone, estradiol, and hecogenin [25, 34] were used to inhibit their potential inhibitory effects on PPD glucuronidation in pooled HLMs. A set of concentrations (5, 50, and 200 μM) was used for all four inhibitors. The concentration of PPD was set at 50 μM. The reaction time and protein concentration were set at 60 min and 0.5 mg/mL, respectively. All other incubation conditions were the same as those for Glucuronidation of PPD in pooled HLMs described above. The concentration of organic solvent was 1% of the total incubation volume. An experimental group without inhibitors but with solvents was used as the control, in which the activities of PPD glucuronidation were designated as 100%. The activities of PPD glucuronidation in the inhibited samples were compared with the control to evaluate the remaining enzyme activity. For determination of IC50 (representing the concentration that inhibits 50% of the control activity) of hecogenin, experiments with a set of concentrations of hecogenin (1–400 μM) in pooled HLMs were conducted.

[2] = system: human recombinant UGT1A1, 1A6, 1A7, 1A8, 1A9, 1A10, 2B4, 2B7, 2B15, and 2B17; assay: PPD glucuronidation with other recombinant human UGT isozymes; type: in vitro ADME; settings: PPD 10, 50, and 200 μM, 0.25 mg protein/mL
Description: (§1) PPD glucuronidation was measured in reaction mixtures containing human recombinant UGT1A1, 1A3, 1A4, 1A6, 1A7, 1A8, 1A9, 1A10, 2B4, 2B7, 2B15, and 2B17. Three substrate concentrations (10, 50, and 200 μM) were used in this study. The incubation conditions were the same as those for Glucuronidation of PPD in pooled HLMs described above except for the protein concentration (0.25 mg/mL).

[3] = parameters: method as in PMID 23494798; settings: previous studies ref 13; cited from earlier work
[4] = system: pooled rat liver microsomes (RLMs); assay: Kinetics of PPD glucuronidation by pooled rat liver microsomes; type: in vitro ADME; settings: formation of PPDG
Description: (§2) In vitro PPD glucuronidation was in an incubation volume of 100 μL. Incubation conditions were initially optimized for the linear product formation with respect to protein concentration (0.2–1 mg/mL), and incubation time (15–120 min). The stock solution of PPD was prepared in dimethyl sulfoxide (DMSO), and the final concentration of DMSO in the incubations was 1% (v/v). Briefly, the incubation mixture contained HLMs or RLMs (0.5 mg of protein/mL), UDPGA (2 mM), MgCl2 (4 mM), alamethicin (25 μg/mg protein), PPD (10–500 μM), and Tris–HCl buffer (50 mM, pH 7.4). The mixture was incubated for 5 min at 37 °C, and then the reaction was started by the addition of UDPGA and incubated in a shaking water bath for 60 min. The reaction was terminated by addition of 200 μL of ice-cold acetonitrile containing GRg1 (internal standard (IS), 0.5 μg/mL) and then centrifuged at 15,000× g for 10 min at 4 °C. The supernatant was evaporated to dryness under nitrogen gas at room temperature, and the residue was reconstituted with 200 µL of 20% acetonitrile. After centrifugation at 15,000× g for 10 min at 4 °C, 5 μL of the supernatants was subjected to analysis. Incubations without PPD and UDPGA were served as blank and negative controls, respectively.
(§3) Quantitative analysis was conducted on an Agilent 1290 infinity system (Agilent Technologies, Santa Clara, CA, USA) coupled with an MS/MS detector (6410 B Triple Quad LC/MS; Agilent Technologies) in negative ion mode. The chromatographic separations were performed on an ACQUITY UPLC HSS T3 column (100 mm × 2.1 mm i. d. (inner diameter), 1.8 μm) thermostated at 45 °C. The mobile phase consisted of A (5 mM ammonium acetate in water) and B (acetonitrile) at a flow rate of 0.4 mL/min. The gradient elution program was set as follow: 0–2 min 20%–50% B, 2–4 min 50%–60% B, 4–5 min 60% B and finally, reconditioning the column with 20% B for 1 min. Optimized ion source parameters were set as follows: gas temperature 325 °C; gas flow 10 L/min; nebulizer 35 psi; capillary voltage 3500 V; fragmentor voltage 265 V for PPDG and 215 V for IS; cell accelerator voltage 0 V; dwell time 200 ms. Data were acquired in multiple reaction monitor (MRM) mode for the following transitions: m/z 635.4 to m/z 375.1 for PPDG and m/z 799.5 to m/z 637.6 for IS, with the collision energy being set at 50 and 26 V, respectively.
(§4) All results were obtained from three replicates in different microsomal incubations, and all the data were expressed as mean ± SD. To estimate the kinetic parameters, data were transformed and Eadie–Hofstee curves were plotted, which help to identify kinetic models. […] In addition, CLmax was calculated according to the Equation (2). […]

human recombinant UGT1A4 [5] = target: T1, human recombinant UGT1A4 (Homo sapiens, UniProt P22310); assay: Kinetics of PPD glucuronidation by recombinant UGT1A4; type: in vitro ADME; settings: formation of PPDG
T1 sequence (P22310 29-534): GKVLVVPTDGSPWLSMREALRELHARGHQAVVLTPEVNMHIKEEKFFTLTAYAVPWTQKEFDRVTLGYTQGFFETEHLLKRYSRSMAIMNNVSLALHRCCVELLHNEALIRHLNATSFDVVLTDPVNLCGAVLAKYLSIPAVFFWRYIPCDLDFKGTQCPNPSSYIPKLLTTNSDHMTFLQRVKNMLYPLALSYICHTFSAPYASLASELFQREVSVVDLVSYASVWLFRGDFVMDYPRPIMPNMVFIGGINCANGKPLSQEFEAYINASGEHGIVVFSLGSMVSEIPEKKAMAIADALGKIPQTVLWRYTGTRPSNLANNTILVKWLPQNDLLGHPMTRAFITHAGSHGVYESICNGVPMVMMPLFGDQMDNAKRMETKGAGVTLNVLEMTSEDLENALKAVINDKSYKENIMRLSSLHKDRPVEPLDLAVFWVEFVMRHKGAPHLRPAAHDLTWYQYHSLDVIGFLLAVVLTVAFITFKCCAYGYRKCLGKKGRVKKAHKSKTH
Description: (§5) A kinetic study for PPD glucuronidation by human recombinant UGT 1A4 was also conducted by incubating PPD with human recombinant UGT 1A4 at protein concentration of 0.25 mg/mL for 1 h. All other incubation conditions were identical to those of glucuronidation of PPD in pooled HLMs.
(§6) All results were obtained from three replicates in different microsomal incubations, and all the data were expressed as mean ± SD. To estimate the kinetic parameters, data were transformed and Eadie–Hofstee curves were plotted, which help to identify kinetic models. Then kinetic parameters were obtained by fitting velocity data to the sigmoidal kinetic (Hill) model (Equation (1)) using Graph Pad Prism 5.0 software (San Diego, CA, USA). In addition, CLmax was calculated according to the Equation (2). (1) V=Vmax × [S]^n/S50n + [S]^n (2) CLmax = Vmax/S50 × n−1/n(n−1)^1/n
(§7) V is reaction velocity, Vmax is the maximum reaction velocity, [S] is the substrate concentration, S50 is the substrate concentration at 0.5 Vmax (analogous to Km in the Michaelis–Menten equation), n is the Hill coefficient (which reflects the degree of sigmoidicity of the velocity versus substrate-concentration relationship), CLmax is the maximum clearance, which provides an estimate of the highest clearance attained.

[6] = system: pooled human liver microsomes (HLMs); assay: Kinetics of PPD glucuronidation by pooled human liver microsomes; type: in vitro ADME; settings: formation of PPDG
Description: as §2, §3, §4

human recombinant UGT1A4 [7] = target: T1, human recombinant UGT1A4; assay: PPD glucuronidation with recombinant human UGT1A4; type: in vitro ADME; parameters: purchased BD Gentest; settings: UGT1A4 0.25 mg protein/mL
Description: as §1

human recombinant UGT1A3 = target: T2, human recombinant UGT1A3 (Homo sapiens, UniProt P35503); assay: PPD glucuronidation with recombinant human UGT1A3; type: in vitro ADME; settings: UGT1A3 0.25 mg protein/mL
T2 construct: purchased BD Gentest
T2 sequence (P35503 29-534): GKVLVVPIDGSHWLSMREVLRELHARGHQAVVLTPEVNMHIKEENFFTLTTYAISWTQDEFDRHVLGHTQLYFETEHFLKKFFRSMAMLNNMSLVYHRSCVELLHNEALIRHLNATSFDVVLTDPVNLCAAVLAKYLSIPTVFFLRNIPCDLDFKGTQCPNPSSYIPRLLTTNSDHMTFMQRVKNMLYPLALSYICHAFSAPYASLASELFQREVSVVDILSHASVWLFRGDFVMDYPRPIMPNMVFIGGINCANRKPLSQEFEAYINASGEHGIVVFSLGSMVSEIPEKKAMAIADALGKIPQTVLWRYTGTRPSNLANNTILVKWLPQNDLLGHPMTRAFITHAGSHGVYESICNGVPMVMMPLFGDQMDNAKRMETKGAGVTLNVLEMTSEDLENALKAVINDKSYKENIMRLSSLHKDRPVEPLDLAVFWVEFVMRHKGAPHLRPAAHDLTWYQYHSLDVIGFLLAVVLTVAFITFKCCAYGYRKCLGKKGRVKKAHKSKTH
Description: as §1

[8] = substrate: CC(C)=CCC[C@](C)(O)C1CC[C@]2(C)[C@@H]1[C@H](O)CC1[C@@]3(C)CC[C@H](O)C(C)(C)C3CC[C@]12C; assay: Kinetics of PPD glucuronidation by recombinant UGT1A4; type: in vitro ADME, human; settings: other: formation of PPDG, recombinant UGT1A4, Hill kinetics, 10–500 μM PPD
Description: as §5, §6, §7

[9] = RLMs, Hill kinetics, 10–500 μM PPD
[10] = HLMs, Hill kinetics, 10–500 μM PPD

OC(Cn1cncn1)(Cn1cncn1)c1ccc(F)cc1F [Fluconazole, fluconazole]
inhibition of PPD glucuronidation (in words) ([1]; pooled HLMs 0.5 mg/mL): no inhibition

CC(C)=CCC[C@](C)(O)[C@H]1CC[C@]2(C)[C@@H]1[C@H](O)C[C@@H]1[C@@]3(C)CC[C@H](O)C(C)(C)[C@@H]3CC[C@]12C [PPD, 20(S)-protopanaxadiol]
PPD glucuronidation by other UGT isozymes (in words) [2]: did not participate in this metabolism | oral bioavailability [3]: ~30% | Vmax ([4]; RLMs 0.5 mg protein/mL, Hill kinetics, 10–500 μM PPD, mean ± SD): 0.30 ± 0.01 nmol/min/mg Protein | S50 [4, 9]: 20.68 ± 1.39 µM | n (Hill coefficient) [4, 9]: 2.50 ± 0.48 | CLmax ([4]; RLMs, calculated by Equation (2)): 7.36 ± 0.27 μL/min/mg Protein | Vmax (human recombinant UGT1A4 [5]; recombinant UGT1A4 0.25 mg/mL, Hill kinetics, 10–500 μM PPD, mean ± SD): 0.31 ± 0.01 nmol/min/mg Protein | n (Hill coefficient) (human recombinant UGT1A4 [5]; recombinant UGT1A4, Hill kinetics, 10–500 μM PPD): 2.34 ± 0.23 | CLmax (human recombinant UGT1A4 [5]; recombinant UGT1A4, calculated by Equation (2)): 8.39 ± 0.79 μL/min/mg Protein | Vmax ([6]; HLMs 0.5 mg protein/mL, Hill kinetics, 10–500 μM PPD, mean ± SD): 0.32 ± 0.01 nmol/min/mg Protein | S50 [6, 10]: 42.80 ± 0.73 µM | n (Hill coefficient) [6, 10]: 2.12 ± 0.24 | CLmax ([6]; HLMs, calculated by Equation (2)): 3.70 ± 0.01 μL/min/mg Protein | catalytic activity towards PPD glucuronidation (human recombinant UGT1A4 [7]; PPD 10 μM): 0.06 ± 0.01 nmol/min/mg protein | catalytic activity towards PPD glucuronidation (human recombinant UGT1A4 [7]; PPD 50 μM): 0.18 ± 0.01 nmol/min/mg protein | catalytic activity towards PPD glucuronidation (human recombinant UGT1A4 [7]; PPD 200 μM): 0.35 ± 0.05 nmol/min/mg protein | catalytic activity towards PPD glucuronidation (human recombinant UGT1A3; PPD 10 μM): 0.02 ± 0.004 nmol/min/mg protein | catalytic activity towards PPD glucuronidation (human recombinant UGT1A3; PPD 50 μM): 0.04 ± 0.004 nmol/min/mg protein | catalytic activity towards PPD glucuronidation (human recombinant UGT1A3; PPD 200 μM): 0.04 ± 0.003 nmol/min/mg protein

C[C@]12CC[C@@H](O)C[C@@H]1CC[C@@H]1[C@@H]2CC[C@]2(C)C(=O)CC[C@@H]12 [androsterone]
inhibition of PPD glucuronidation (in words) ([1]; pooled HLMs 0.5 mg/mL): weak inhibition

C[C@]12CC[C@@H]3c4ccc(O)cc4CC[C@H]3[C@@H]1CC[C@@H]2O [estradiol]
inhibition of PPD glucuronidation (in words) ([1]; pooled HLMs 0.5 mg/mL): weak inhibition

hecogenin
IC50 ([1]; pooled HLMs, hecogenin 1–400 μM): 21.3 ± 4.31 µM | inhibition of PPD glucuronidation (in words) ([1]; pooled HLMs 0.5 mg/mL): concentration-dependent inhibitory effect | inhibitory effect on PPD glucuronidation compared with the solvent control ([1]; inhibitor at 50 µM, pooled HLMs 0.5 mg/mL): more than 60%

B1: human recombinant UGT 1A4 (Homo sapiens) (protein)
chain: GKVLVVPTDGSPWLSMREALRELHARGHQAVVLTPEVNMHIKEEKFFTLTAYAVPWTQKEFDRVTLGYTQGFFETEHLLKRYSRSMAIMNNVSLALHRCCVELLHNEALIRHLNATSFDVVLTDPVNLCGAVLAKYLSIPAVFFWRYIPCDLDFKGTQCPNPSSYIPKLLTTNSDHMTFLQRVKNMLYPLALSYICHTFSAPYASLASELFQREVSVVDLVSYASVWLFRGDFVMDYPRPIMPNMVFIGGINCANGKPLSQEFEAYINASGEHGIVVFSLGSMVSEIPEKKAMAIADALGKIPQTVLWRYTGTRPSNLANNTILVKWLPQNDLLGHPMTRAFITHAGSHGVYESICNGVPMVMMPLFGDQMDNAKRMETKGAGVTLNVLEMTSEDLENALKAVINDKSYKENIMRLSSLHKDRPVEPLDLAVFWVEFVMRHKGAPHLRPAAHDLTWYQYHSLDVIGFLLAVVLTVAFITFKCCAYGYRKCLGKKGRVKKAHKSKTH
notes: purchased BD Gentest
K0.5 [8]: 18.49 ± 1.85 µM | Vmax [8]: 0.00031 µmol/min/mg
